Assay results as given in patent publication US10440955B2, “Methods comprising a biocidal polyamine” (Curza Global, LLC, priority 2013, dated 2019).
In brackets after ≈: the same amount, converted by molar mass. Like-named read-outs stand apart in the source and are kept apart here.

How the values were obtained:
L-929 cells (ATCC CCL-1) = experiment: Minimal Essential Media (MEM) Elution cytotoxicity test; assay type: cell-based; conditions: Table 11A
Description: Summary: The Minimal Essential Media (MEM) Elution test was designed to determine the cytotoxicity of extractable substances. The test article was added to cell monolayers and incubated. The cell monolayers were examined and scored based on the degree of cellular destruction.
Acceptance Criteria: The United States Pharmacopeia & National Formulary (USP <87>) states that the test article meets the requirements, or receives a passing score (Pass) if the reactivity grade is not greater than grade 2 or a mild reactivity.
Acceptance criteria were based upon the negative and media controls receiving “0” reactivity grades and positive controls receiving a 3-4 reactivity grades (moderate to severe).
The cell monolayers were examined microscopically. The wells were scored as to the degree of discernable morphological cytotoxicity on a relative scale of 0 to 4:
The results from the three wells were averaged to give a final cytotoxicity score.
[…] This initial concentration was then diluted 1: 2, 1:4, 1:8, and 1:16. Multiple well cell culture plates were seeded with a verified quantity of industry standard L-929 cells (ATCC CCL-1) and incubated until approximately 80% confluent. The test articles and control extracts were added to the cell monolayers in triplicate. The cells were incubated at 37±1° C. with 5±1% CO2 for 48±3 hours.

P. aeruginosa = experiment: MIC, 96-well CAMHB, 10^5 to 10^2 CFU/mL in 24 hours; assay type: cell-based, Pseudomonas aeruginosa; conditions: for MIC: Pseudomonas aeruginosa
Description: (§1) To determine the MIC of polyamine compounds, the protocol described herein was used.
(§2) In brief, a 0.5 McFarland of each bacterial isolate was made. A 0.5 McFarland is a measure of turbidity in a liquid sample that contains approximately 1×10^∧8 CFU/mL. The 0.5 McFarland standard was diluted in cation adjusted Mueller Hinton Broth (CAMHB), and 50 μL of broth were added to a well of a 96-well plate. In addition, 50 μL of CAMHB that contained a desired concentration of antimicrobial were also added to the well for a final volume of 100 μL and a final concentration of approximately 5×10^4 CFU/well (which equated to approximately 5×10^5 CFU/mL). Each well contained a desired amount of polyamine compound in order to experimentally determine the MIC. Each 96-well plate was incubated at 37° C. for 24 hours. The contents of each well were plated on tryptic soy agar (TSA). TSA plates were incubated for 37° C. for 24 hours after which the number of CFU were counted and used to calculate the CFU/mL that remained after exposure to varying concentrations of compound. This procedure was repeated n=8 times for each concentration of antimicrobial.

MRSA = experiment: as above; assay type: cell-based, Staphylococcus aureus; conditions: for MIC: Staphylococcus aureus, MRSA, read-out: MIC (MRSA)
Description: as §1
as §2, with “antimicrobial. […]” for “antimicrobial.”

[1] = Table 5, read-out: MIC (P. aeruginosa)

MIC (P. aeruginosa; [1])	MIC (MRSA; Table 5)	Molecule	other results
< 50 µM	< 50 µM	CCCCCCCCNCCCNCCCNCc1cc(CNCCCNCCCNCCCCCCCC)cc(-c2ccccc2)c1 [CZ-92, N^1,N^1′-([1,1′-biphenyl]-3,5-diylbis(methylene))bis(N^3-(3-(octylamino)propyl)-propane-1,3-diamine)]	Results Pass/Fail (L-929 cells (ATCC CCL-1); 25 μg/mL): Fail (a numerical grade greater than 2 is considered a cytotoxic effect, or a failing score (Fail)); Results Pass/Fail (L-929 cells (ATCC CCL-1); dilution 1:2 of 25 μg/mL): Fail (a numerical grade greater than 2 is considered a cytotoxic effect, or a failing score (Fail)); Results Pass/Fail (L-929 cells (ATCC CCL-1); dilution 1:4 of 25 μg/mL): Fail (a numerical grade greater than 2 is considered a cytotoxic effect, or a failing score (Fail)); Results Pass/Fail (L-929 cells (ATCC CCL-1); dilution 1:8 of 25 μg/mL): Fail (a numerical grade greater than 2 is considered a cytotoxic effect, or a failing score (Fail)); Results Pass/Fail (L-929 cells (ATCC CCL-1); dilution 1:16 of 25 μg/mL): Pass (receives a passing score (Pass) if the reactivity grade is not greater than grade 2 or a mild reactivity)
< 50 µM	< 50 µM	c1ccc(-c2cc(CNCCCNCCCNCC3CCCCC3)cc(CNCCCNCCCNCC3CCCCC3)c2)cc1 [CZ-96, N^1,N^1′-([1,1′-biphenyl]-3,5-diylbis(methylene))bis(N^3-(3-((cyclohexylmethyl)amino)propyl)propane-1,3-diamine)]	Results Pass/Fail (L-929 cells (ATCC CCL-1); 25 μg/mL): Pass (receives a passing score (Pass) if the reactivity grade is not greater than grade 2 or a mild reactivity); Results Pass/Fail (L-929 cells (ATCC CCL-1); dilution 1:2 of 25 μg/mL): Pass (receives a passing score (Pass) if the reactivity grade is not greater than grade 2 or a mild reactivity); Results Pass/Fail (L-929 cells (ATCC CCL-1); dilution 1:4 of 25 μg/mL): Pass (receives a passing score (Pass) if the reactivity grade is not greater than grade 2 or a mild reactivity); Results Pass/Fail (L-929 cells (ATCC CCL-1); dilution 1:8 of 25 μg/mL): Pass (receives a passing score (Pass) if the reactivity grade is not greater than grade 2 or a mild reactivity); Results Pass/Fail (L-929 cells (ATCC CCL-1); dilution 1:16 of 25 μg/mL): Pass (receives a passing score (Pass) if the reactivity grade is not greater than grade 2 or a mild reactivity)
50 to 100 µM (≈ 23.1 to 46.3 µg/mL)	< 50 µM	NCCCNCCCNCc1cc(CNCCCNCCCN)cc(OC2CCCCC2)c1 [CZ-105]	
50 to 100 µM (≈ 29.1 to 58.3 µg/mL)	< 50 µM	CC(C)CNCCCNCCCNCc1cc(CNCCCNCCCNCC(C)C)cc(OCc2ccccc2)c1 [CZ-106, N^1,N^1′-((5-(benzyloxy)-1,3-phenylene)bis(methylene))bis(N^3-(3-(isobutylamino)propyl)propane-1,3-diamine)]	
		CC(C)CNCCCOc1cc(CNCCCNCCCN)cc(CNCCCNCCCN)c1 [CZ-107, N^1,N^1′-((5-(3-(isoButylammonio)propoxy)-1,3-phenylene)bis(methylene))-bis(N^3-(3-ammoniopropyl)propane-1,3-diaminium) chloride]	MIC (P. aeruginosa; read-out: MIC (P. aeruginosa), Table 5): 50 to 100 µM; MIC (MRSA): < 50 µM
< 50 µM	< 50 µM	CC(C)CNCCCNCCCNCc1cccc(CNCCCNCCCNCC(C)C)c1 [CZ-108, N^1,N^1′-(1,3-phenylenebis(methylene))bis(N^3-(3-(isobutylamino)propyl)propane-1,3-diamine)]	
< 50 µM	< 50 µM	CC(C)CNCCCNCCCNCc1cc(Br)cc(CNCCCNCCCNCC(C)C)c1 [CZ-109, N^1,N^1′-((5-bromo-1,3-phenylene)bis(methylene))bis(N^3-(3-(isobutylamino)propyl)propane-1,3-diamine)]	
< 50 µM	< 50 µM	CC(C)CNCCCNCCCCNCc1cc(CNCCCCNCCCNCC(C)C)cc(-c2ccccc2)c1 [CZ-111, N^1,N^1′-([1,1′-biphenyl]-3,5-diylbis(methylene))bis(N^4-(3-(isobutylamino)propyl)butane-1,4-diamine)]	
< 50 µM	< 50 µM	CC(C)CNCCCNCC(C)(C)CNCc1cc(CNCC(C)(C)CNCCCNCC(C)C)cc(-c2ccccc2)c1 [CZ-112, N^1,N^1′-([1,1′-biphenyl]-3,5-diylbis(methylene))bis(N^3-(3-(isobutylamino)propyl)-2,2-dimethylpropane-1,3-diamine)]	
< 50 µM	< 50 µM	CCCCCCNCCCNCCCNCc1cccc(CNCCCNCCCNCCCCCC)c1 [CZ-113, N^1,N^1′-(1,3-phenylenebis(methylene))bis(N^3-(3-(hexylamino)propyl)propane-1,3-diamine)]	
< 50 µM	< 50 µM	CCCCCCNCCCNCCCNCc1cc(CNCCCNCCCNCCCCCC)cc(-c2ccccc2)c1 [CZ-114, N^1,N^1′-([1,1′-biphenyl]-3,5-diylbis(methylene))bis(N^3-(3-(hexylamino)propyl)propane-1,3-diamine)]	
< 50 µM	< 50 µM	NCCCCCCCCCCCCNCc1cc(CNCCCCCCCCCCCCN)cc(-c2ccccc2)c1 [CZ-115, N^1,N^1′-([1,1′-biphenyl]-3,5-diylbis(methylene))bis(dodecane-1,12-diamine)]	
< 50 µM	< 50 µM	CC(C)CNCCCCCCCCCCCCNCc1cc(CNCCCCCCCCCCCCNCC(C)C)cc(-c2ccccc2)c1 [CZ-116, N^1,N^1′-([1,1′-biphenyl]-3,5-diylbis(methylene))bis(N^12-isobutyldodecane-1,12-diamine)]	
< 50 µM	< 50 µM	CC(C)CNCCCCCCCCCCCCNCc1cccc(-c2cc(CNCCCCCCCCCCCCNCC(C)C)cc(CNCCCCCCCCCCCCNCC(C)C)c2)c1 [CZ-117, N^1,N^1′,N^1″-([1,1′-biphenyl]-3,3′,5-triyltris(methylene))tris(N^12-isobutyldodecane-1,12-diamine)]	
< 50 µM	< 50 µM	CCCCCCNCCCNCCCCNCc1cc(CNCCCCNCCCNCCCCCC)cc(-c2ccccc2)c1 [CZ-118, N^1,N^1′-([1,1′-biphenyl]-3,5-diylbis(methylene))bis(N^4-(3-(hexylamino)propyl)butane-1,4-diamine)]	
< 50 µM	< 50 µM	CCCCCCNCCCNCCCCNCc1cccc(CNCCCCNCCCNCCCCCC)c1 [CZ-119, N^1,N^1′-(1,3-phenylenebis(methylene))bis(N^4-(3-(hexylamino)propyl)butane-1,4-diamine)]	
		N^1,N^1′,N^1″-((4′-(trifluoromethyl)-[1,1′-biphenyl]-3,3′,5-triyl)tris(methylene))tris(N3-(3-aminopropyl)propane-1,3-diamine), hydrochloride salt [CZ-69]	MIC (P. aeruginosa) (P. aeruginosa; Table 5): +++ (+++ = 50 μM > MIC. MIC results of “>n μM” or “<n μM” will also be designated as +++ if n <50.); MIC (MRSA) (MRSA; Table 5): +++ (+++ = 50 μM > MIC. MIC results of “>n μM” or “<n μM” will also be designated as +++ if n <50.)
		tri-tert-butyl-(((((benzene-1,3,5-triyltris(methylene))tris(azanediyl))tris-(propane-3,1-diyl))tris(azanediyl))tris(propane-3,1-diyl))tricarbamate, hydrochloride salt [CZ-54]	MIC (P. aeruginosa) (P. aeruginosa; Table 5): +++ (+++ = 50 μM > MIC. MIC results of “>n μM” or “<n μM” will also be designated as +++ if n <50.); MIC (MRSA) (MRSA; Table 5): +++ (+++ = 50 μM > MIC. MIC results of “>n μM” or “<n μM” will also be designated as +++ if n <50.)
